# Data published in the supplement of paper PMC11208160.
# Experiment: recombinant UMI read abundance after kanamycin selection (control-corrected) (log10(CPM+1)); higher = more efficient recombination; extreme values may be limits of the assay; sequences stand for … in AGTGCAGAGAAAATCGGCCAGTTTTCTCTGCCTGCAGTCCGCATGCCGTGGGACCCCTTGGGTTCTAACCTGTTGCCTAGATTTATGCAGCGGACTGCCTTTCTCCCAAAGTGATAAACCGG…AGGTTGGTTTCACT; site = the 11-nt donor
# Protocol: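 Pooled E. coli donor-specificity screen for the IS621 bridge recombinase. Each library member carries a reprogrammed 11-nt donor and a full-length LE bridge RNA expressed in cis from the natural promoter, with a paired donor-binding loop (8-nt LDG + 4-nt RDG) and a target-binding loop fixed to T5. It is co-electroporated with a T5 target plasmid; recombinase is induced with 0.07 mM IPTG and recombinants are selected on kanamycin. UMIs are counted as CPM, averaged over two biological replicates and corrected by the unselected control. Molecule = full bridge RNA written as DNA, built from the T5 scaffold: LDG = donor specificity nt 1-8, RDG = reverse complement of nt 8-11.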
# 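Further: IS621 bridge recombinase in Escherichia coli cells against a fixed T5 target plasmid.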
row,Sequence,recombinant UMI read abundance (log10)
1,AAAAAGGCATGGACCGGTTTTCCCGGTAATCCGTATTTGCT (site AAAAAGGCTAG),1.88
2,AAAAAGGCATGGACCGGTTTTCCCGGTAATCCGTATTTGCT (site ACAAAGGCTAG),1.19
3,AAAAAGGCATGGACCGGTTTTCCCGGTAATCCGTATTTGCT (site AGAAAGGCTAG),0.722
4,AAAAAGGCATGGACCGGTTTTCCCGGTAATCCGTATTTGCT (site ATAAAGGCTAG),1.59
5,AAAACCACATGGACCGGTTTTCCCGGTAATCCGTATTTGCT (site AAAACCACTAG),1.82
6,AAAATATCATGGACCGGTTTTCCCGGTAATCCGTATTTGCA (site AAAATATCTTG),2.21
7,AAAATATCATGGACCGGTTTTCCCGGTAATCCGTATTTGCA (site ACAGTATCTTG),1.88
8,AAACGCACATGGACCGGTTTTCCCGGTAATCCGTATTTGGG (site AAACGCACTCC),0.0145
9,AAACGGGCATGGACCGGTTTTCCCGGTAATCCGTATTTGCG (site AAACGGGCTCG),0.661
10,AAACTGTCATGGACCGGTTTTCCCGGTAATCCGTATTTGCC (site AAACTGTCTGG),1.79
11,AAACTGTCATGGACCGGTTTTCCCGGTAATCCGTATTTGTT (site AAACTGTCTAA),1.97
12,AAACTTGCATGGACCGGTTTTCCCGGTAATCCGTATTTGGA (site AAACTTGCTTC),0.688
13,AAAGATCCATGGACCGGTTTTCCCGGTAATCCGTATTTGGC (site AAAGATCCTGC),0
14,AAAGCCCCATGGACCGGTTTTCCCGGTAATCCGTATTTGAA (site AAAGCCCCTTT),0.767
15,AAAGCCTCATGGACCGGTTTTCCCGGTAATCCGTATTTGAA (site AAAGCCTCTTT),2.63
16,AAAGCTCCATGGACCGGTTTTCCCGGTAATCCGTATTTGTA (site AAAGCTCCTTA),1.42
17,AAAGGCACATGGACCGGTTTTCCCGGTAATCCGTATTTGAA (site AAAGGCACTTT),0.56
18,AAAGGGACATGGACCGGTTTTCCCGGTAATCCGTATTTGAG (site AAAGGGACTCT),1.76
19,AAAGGGCCATGGACCGGTTTTCCCGGTAATCCGTATTTGAG (site AAAGGGCCTCT),0.0224
20,AAAGTAGCATGGACCGGTTTTCCCGGTAATCCGTATTTGCT (site AAAGTAGCTAG),1.94
21,AAAGTCACATGGACCGGTTTTCCCGGTAATCCGTATTTGGG (site AAAGTCACTCC),0.0214
22,AAAGTCACATGGACCGGTTTTCCCGGTAATCCGTATTTGGG (site CAAGTCACTCC),0.458

row,Sequence,recombinant UMI read abundance (log10)
1,AAAGTCACATGGACCGGTTTTCCCGGTAATCCGTATTTGGG (site GAAGTCACTCC),0.00503
2,AAAGTCACATGGACCGGTTTTCCCGGTAATCCGTATTTGGG (site TAAGTCACTCC),0.158
3,AAATACACATGGACCGGTTTTCCCGGTAATCCGTATTTGCT (site AAATACACTAG),2.41
4,AAATATGCATGGACCGGTTTTCCCGGTAATCCGTATTTGGA (site AAATATGCTTC),1.25
5,AAATATGCATGGACCGGTTTTCCCGGTAATCCGTATTTGGA (site AACTATGCTTC),1
6,AAATATGCATGGACCGGTTTTCCCGGTAATCCGTATTTGGA (site AAGTATGCTTC),1.23
7,AAATATGCATGGACCGGTTTTCCCGGTAATCCGTATTTGGA (site AATTATGCTTC),0.905
8,AAATCGACATGGACCGGTTTTCCCGGTAATCCGTATTTGGT (site AAATCGACTAC),0.133
9,AAATCGTCATGGACCGGTTTTCCCGGTAATCCGTATTTGTC (site AAATCGTCTGA),1.91
10,AAATGAGCATGGACCGGTTTTCCCGGTAATCCGTATTTGGG (site AAATGAGCTCC),0.252
11,AAATGAGCATGGACCGGTTTTCCCGGTAATCCGTATTTGGG (site CAATGAGCTCC),0.247
12,AAATGAGCATGGACCGGTTTTCCCGGTAATCCGTATTTGGG (site GAATGAGCTCC),0.00588
13,AAATGAGCATGGACCGGTTTTCCCGGTAATCCGTATTTGGG (site TAATGAGCTCC),0.46
14,AAATGATCATGGACCGGTTTTCCCGGTAATCCGTATTTGAG (site AAATGATCTCT),2.71
15,AAATGCACATGGACCGGTTTTCCCGGTAATCCGTATTTGGG (site AAATGCACTCC),0.0107
16,AAATGCTCATGGACCGGTTTTCCCGGTAATCCGTATTTGAA (site AAATGCTCTTT),1.66
17,AAATGCTCATGGACCGGTTTTCCCGGTAATCCGTATTTGAA (site CAATGCTCTTT),1.65
18,AAATGCTCATGGACCGGTTTTCCCGGTAATCCGTATTTGAA (site GAATGCTCTTT),0.961
19,AAATGCTCATGGACCGGTTTTCCCGGTAATCCGTATTTGAA (site TAATGCTCTTT),1.17
20,AAATGGCCATGGACCGGTTTTCCCGGTAATCCGTATTTGCA (site AAATGGCCTTG),0.00935
21,AAATGGCCATGGACCGGTTTTCCCGGTAATCCGTATTTGCA (site CAATGGCCTTG),0
22,AAATGGCCATGGACCGGTTTTCCCGGTAATCCGTATTTGCA (site GAATGGCCTTG),0

row,Sequence,recombinant UMI read abundance (log10)
1,AAATGGCCATGGACCGGTTTTCCCGGTAATCCGTATTTGCA (site TAATGGCCTTG),0
2,AAATTTGCATGGACCGGTTTTCCCGGTAATCCGTATTTGGC (site AAATTTGCTGC),0
3,AACAAACCATGGACCGGTTTTCCCGGTAATCCGTATTTGGT (site AACAAACCTAC),0
4,AACAAACCATGGACCGGTTTTCCCGGTAATCCGTATTTGGT (site CACAAACCTAC),0
5,AACAAACCATGGACCGGTTTTCCCGGTAATCCGTATTTGGT (site GACAAACCTAC),0
6,AACAAACCATGGACCGGTTTTCCCGGTAATCCGTATTTGGT (site TACAAACCTAC),0.337
7,AACACCCCATGGACCGGTTTTCCCGGTAATCCGTATTTGAG (site AACACCCCTCT),0.0941
8,AACACTGCATGGACCGGTTTTCCCGGTAATCCGTATTTGAG (site AACACTGCTCT),1.31
9,AACATACCATGGACCGGTTTTCCCGGTAATCCGTATTTGGA (site AACATACCTTC),0.0114
10,AACCACTCATGGACCGGTTTTCCCGGTAATCCGTATTTGCC (site AACCACTCTGG),3.01
11,AACCATCCATGGACCGGTTTTCCCGGTAATCCGTATTTGCC (site AACCATCCTGG),0.00555
12,AACCCGGCATGGACCGGTTTTCCCGGTAATCCGTATTTGGA (site AACCCGGCTTC),0.181
13,AACCCTCCATGGACCGGTTTTCCCGGTAATCCGTATTTGAT (site AACCATCCTAT),0.00728
14,AACCCTCCATGGACCGGTTTTCCCGGTAATCCGTATTTGAT (site AACCCTCCTAT),0.115
15,AACCCTCCATGGACCGGTTTTCCCGGTAATCCGTATTTGAT (site AACCGTCCTAT),0.015
16,AACCCTCCATGGACCGGTTTTCCCGGTAATCCGTATTTGAT (site AACCTTCCTAT),0.011
17,AACCGCCCATGGACCGGTTTTCCCGGTAATCCGTATTTGAA (site AACCGCCCTTT),0.156
18,AACCGTCCATGGACCGGTTTTCCCGGTAATCCGTATTTGTT (site AACCGTCCTAA),0.00892
19,AACCGTCCATGGACCGGTTTTCCCGGTAATCCGTATTTGTT (site AACCGTCCTAC),0.0168
20,AACCGTCCATGGACCGGTTTTCCCGGTAATCCGTATTTGTT (site AACCGTCCTAG),0.794
21,AACCGTCCATGGACCGGTTTTCCCGGTAATCCGTATTTGTT (site AACCGTCCTAT),0.0199
